This note sets out measurements from the NIST ThermoML archive (doi:10.1016/j.fluid.2016.11.022).

± gives the expanded uncertainty stated by the source.

The conditions of data set [1]: Liquid; for self diffusion coefficient: NMR.
Data set [2] is described as follows: xn = mol fraction of the nth substance listed. The note with it: 343.15 K, Liquid; for viscosity: Oscillating piston [Cambridge Applied Systems Model]; for molar volume: High-pressure cell with syringe pump.

As for `CCCCCC[n+]1ccn(C)c1.O=S(=O)([N-]S(=O)(=O)C(F)(F)F)C(F)(F)F`, the self diffusion coefficient was 1.79e-11 m2/s in data set [1] (298.15 K, 100 kPa); 5.54e-11 m2/s in data set [1] (323.15 K, 100 kPa); 1.07e-10 m2/s in data set [1] (343.15 K, 100 kPa). Besides, in data set [1] (343.15 K, 100 kPa, Oscillating piston [Cambridge Applied Systems Model]), the viscosity (in general, the resistance of a fluid to flow) amounted to 14.07 ± 0.35 mPa·s.
For the compound `CCCCCC[n+]1ccn(C)c1.O=S(=O)([N-]S(=O)(=O)C(F)(F)F)C(F)(F)F` + FCC(F)(F)F, the viscosity in data set [2] (100 kPa, x2 = 0) turned out to be 14.07 ± 0.35 mPa·s.
For `FCC(F)(F)F` [1,1,1,2-tetrafluoroethane], the self diffusion coefficient in data set [1] (298.15 K, 670 kPa) amounted to 5.95e-09 m2/s.
On to `FCC(F)(F)F` [1,1,1,2-tetrafluoroethane] + CCCCCC[n+]1ccn(C)c1.O=S(=O)([N-]S(=O)(=O)C(F)(F)F)C(F)(F)F, for which the molar volume was determined as 0.0003358 ± 3.2e-06 m3/mol in data set [2] (84 kPa, x1 = 0.0397); 0.0003159 ± 2.8e-06 m3/mol in data set [2] (212 kPa, x1 = 0.1086); 0.0002928 ± 2.6e-06 m3/mol in data set [2] (395 kPa, x1 = 0.1956); 0.0002669 ± 2.2e-06 m3/mol in data set [2] (615 kPa, x1 = 0.2904); 0.0002313 ± 1.8e-06 m3/mol in data set [2] (971 kPa, x1 = 0.4272); 0.0001984 ± 1.4e-06 m3/mol in data set [2] (1320 kPa, x1 = 0.5508). The molar volume in data set [2] (1732 kPa, x1 = 0.6867) is recorded as 0.0001653 ± 1e-06 m3/mol; in data set [2] (1956 kPa, x1 = 0.777), 0.0001436 ± 8e-07 m3/mol; in data set [2] (2016 kPa, x1 = 0.8075), 0.0001367 ± 6e-07 m3/mol; in data set [2] (2064 kPa, x1 = 0.8427), 0.0001289 ± 6e-07 m3/mol; in data set [2] (2075 kPa, x1 = 0.8572), 0.0001265 ± 4e-07 m3/mol. In addition, the viscosity was found to be 12.62 ± 0.31 mPa·s in data set [2] (310 kPa, x1 = 0.148); 11.97 ± 1.3 mPa·s in data set [2] (610 kPa, x1 = 0.276); 9.33 ± 1.6 mPa·s in data set [2] (850 kPa, x1 = 0.364); 8.09 ± 0.18 mPa·s in data set [2] (1130 kPa, x1 = 0.459); 7.06 ± 0.3 mPa·s in data set [2] (1470 kPa, x1 = 0.575); 3.24 ± 0.07 mPa·s in data set [2] (2030 kPa, x1 = 0.813).
